Measurements reported in ChEMBL document CHEMBL1629412, “Cyclic peptide inhibitors of HIV-1 integrase derived from the LEDGF/p75 protein” (Bioorg Med Chem, 2010).
Activity calls are given as the source filed them. No cut-off for these calls is given here. Numbered stars: 1 amine (or outer) side, 2 acyl side, 3 side chain; on linkers, the order of the positions; unused ones are H or OH. Bridge positions count the residues as written; N and C are the ends. Square brackets hold non-standard residues; d marks the D form. Peptide text beside a SMILES is read from it. X2 = O=C(c1ccccc1-c1c2ccc(=O)cc-2oc2cc(O)ccc12)N(CCC(=O)[*:1])C(=O)[*:2]; X1 = O=C(c1ccccc1-c1c2ccc(=O)cc-2oc2cc(O)ccc12)N(CC(=O)[*:1])C(=O)[*:2]; N(6-aminohexyl)Gly = O=C(CN(CCCCCCN[*:3])[*:1])[*:2]; NGly(3-aminopropyl) = O=C(CN(CCCN[*:3])[*:1])[*:2]; N(2-Aminoethyl)Gly = O=C(CN(CCN[*:3])[*:1])[*:2]; Nlys = NCCCCNCC(=O)O

Assays:
[1] = molecular target: Human immunodeficiency virus type 1 integrase (Human immunodeficiency virus 1) (UniProt Q7ZJM1); experiment: Inhibition of HIV-1 Integrase at 1:50 protein/compound molar ratio; conditions: concentration not given here
Sequence of Human immunodeficiency virus type 1 integrase (Human immunodeficiency virus 1) (Q7ZJM1 as listed by the source): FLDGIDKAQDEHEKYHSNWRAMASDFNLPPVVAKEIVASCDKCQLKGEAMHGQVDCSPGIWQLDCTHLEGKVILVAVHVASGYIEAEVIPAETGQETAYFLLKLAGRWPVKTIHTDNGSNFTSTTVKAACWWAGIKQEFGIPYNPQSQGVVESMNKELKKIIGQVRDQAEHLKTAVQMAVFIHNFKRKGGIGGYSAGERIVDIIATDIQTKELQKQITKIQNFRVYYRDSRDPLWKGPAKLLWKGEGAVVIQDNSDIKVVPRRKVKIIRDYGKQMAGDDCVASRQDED

[2] = molecular target: Human immunodeficiency virus type 1 integrase (Human immunodeficiency virus 1) (UniProt Q7ZJM1); experiment: Binding affinity to HIV-1 Integrase by FRET assay
[3] = system: Human immunodeficiency virus 1; experiment: Antiviral activity against HIV1 infected in human H9 cells assessed as extracellular release of viral protein p24 at 12.5 uM added to the medium every 2 days; type: functional
[4] = system: Human immunodeficiency virus 1; experiment: Antiviral activity against HIV1 infected in human H9 cells assessed as extracellular release of viral protein p24 at 12.5 uM after 8 days; type: functional, organism-based
[5] = Chemical stability of the compound in presence of trypsin and chymotrypsin mixture at 1 mM after 30 mins by MALDI-TOF MS; type: physicochemical; conditions: isolated protein, 0.5 h, 1000 µM
[6] = molecular target: Human immunodeficiency virus type 1 integrase (Human immunodeficiency virus 1) (UniProt Q7ZJM1); experiment: Inhibition of HIV-1 Integrase; conditions: concentration not given here
[7] = system: Human immunodeficiency virus 1; experiment: Antiviral activity against HIV1 infected in human MAGI cells assessed as Tat-mediated reporter gene expression; type: functional, organism-based
[8] = system: Human immunodeficiency virus 1; experiment: Antiviral activity against HIV1 infected in human H9 cells assessed as extracellular release of viral protein p24 at 12.5 uM added to the medium every 2 days measured after 8 days; type: functional; conditions: Human immunodeficiency virus 1, H9
[9] = Chemical stability of the compound in presence of trypsin and chymotrypsin mixture at 1 mM after 150 mins by MALDI-TOF MS; type: physicochemical; conditions: isolated protein, 2.5 h, 1000 µM

Row | Compound | inhibition [1] | Activity [2] | Activity [7] | further results
1 | CC[C@H](C)[C@@H]1NC(=O)[C@H](CCCCN)NC(=O)[C@H](CC(C)C)NC(=O)[C@H](CO)NC(=O)[C@H](CC(N)=O)NC(=O)[C@H](Cc2c[nH]c3ccccc23)NC(=O)CCN(C(=O)c2ccccc2-c2c3ccc(=O)cc-3oc3cc(O)ccc23)C(=O)NCCCCN(CC(N)=O)C(=O)[C@H](C(C)C)NC(=O)[C@H](CC(=O)O)NC(=O)[C@H](CC(C)C)NC(=O)[C@H](CC(N)=O)NC(=O)[C@H](CC(=O)O)NC1=O (WNSLKIDNLDV[Nlys]-NH2; linker N-12 via X2) | 65% | 3.1 µM |  | 
2 | H-WNSLKIDNLDV-OH | 83% | 5.1 µM | Dose-dependent effect | Activity [3]: Active; Activity [4]: inactive; Stability [5]: Unstable; inhibition [6]: 85%
3 | CC[C@H](C)[C@@H]1NC(=O)[C@H](CCCCN)NC(=O)[C@H](CC(C)C)NC(=O)[C@H](CO)NC(=O)[C@H](CC(N)=O)NC(=O)[C@H](Cc2c[nH]c3ccccc23)NC(=O)CN(C(=O)c2ccccc2-c2c3ccc(=O)cc-3oc3cc(O)ccc23)C(=O)NCCN(CC(N)=O)C(=O)[C@H](C(C)C)NC(=O)[C@H](CC(=O)O)NC(=O)[C@H](CC(C)C)NC(=O)[C@H](CC(N)=O)NC(=O)[C@H](CC(=O)O)NC1=O (WNSLKIDNLDV[N(2-Aminoethyl)Gly]-NH2; linker N-12 via X1) | 51% | 5.2 µM |  | 
4 | CC[C@H](C)[C@@H]1NC(=O)[C@H](CCCCN)NC(=O)[C@H](CC(C)C)NC(=O)[C@H](CO)NC(=O)[C@H](CC(N)=O)NC(=O)[C@H](Cc2c[nH]c3ccccc23)NC(=O)CN(C(=O)c2ccccc2-c2c3ccc(=O)cc-3oc3cc(O)ccc23)C(=O)NCCCCN(CC(N)=O)C(=O)[C@H](C(C)C)NC(=O)[C@H](CC(=O)O)NC(=O)[C@H](CC(C)C)NC(=O)[C@H](CC(N)=O)NC(=O)[C@H](CC(=O)O)NC1=O (WNSLKIDNLDV[Nlys]-NH2; linker N-12 via X1) | 90% | 5 µM | Dose-dependent effect | inhibition at 12.5 µM ([3]; Human immunodeficiency virus 1, H9, 48 h): 80%; inhibition at 12.5 µM [8]: > 90%; Stability [5]: Stable; Stability [9]: Unstable
5 | CC[C@H](C)[C@@H]1NC(=O)[C@H](CCCCN)NC(=O)[C@H](CC(C)C)NC(=O)[C@H](CO)NC(=O)[C@H](CC(N)=O)NC(=O)[C@H](Cc2c[nH]c3ccccc23)NC(=O)CN(C(=O)c2ccccc2-c2c3ccc(=O)cc-3oc3cc(O)ccc23)C(=O)NCCCN(CC(N)=O)C(=O)[C@H](C(C)C)NC(=O)[C@H](CC(=O)O)NC(=O)[C@H](CC(C)C)NC(=O)[C@H](CC(N)=O)NC(=O)[C@H](CC(=O)O)NC1=O (WNSLKIDNLDV[NGly(3-aminopropyl)]-NH2; linker N-12 via X1) | 44% | 6.5 µM |  | 
6 | CC[C@H](C)[C@@H]1NC(=O)[C@H](CCCCN)NC(=O)[C@H](CC(C)C)NC(=O)[C@H](CO)NC(=O)[C@H](CC(N)=O)NC(=O)[C@H](Cc2c[nH]c3ccccc23)NC(=O)CN(C(=O)c2ccccc2-c2c3ccc(=O)cc-3oc3cc(O)ccc23)C(=O)NCCCCCCN(CC(N)=O)C(=O)[C@H](C(C)C)NC(=O)[C@H](CC(=O)O)NC(=O)[C@H](CC(C)C)NC(=O)[C@H](CC(N)=O)NC(=O)[C@H](CC(=O)O)NC1=O (WNSLKIDNLDV[N(6-aminohexyl)Gly]-NH2; linker N-12 via X1) | 48% | 3.3 µM | inactive | 
7 | CC[C@H](C)[C@@H]1NC(=O)[C@H](CCCCN)NC(=O)[C@H](CC(C)C)NC(=O)[C@H](CO)NC(=O)[C@H](CC(N)=O)NC(=O)[C@H](Cc2c[nH]c3ccccc23)NC(=O)CCN(C(=O)c2ccccc2-c2c3ccc(=O)cc-3oc3cc(O)ccc23)C(=O)NCCCCCCN(CC(N)=O)C(=O)[C@H](C(C)C)NC(=O)[C@H](CC(=O)O)NC(=O)[C@H](CC(C)C)NC(=O)[C@H](CC(N)=O)NC(=O)[C@H](CC(=O)O)NC1=O (WNSLKIDNLDV[N(6-aminohexyl)Gly]-NH2; linker N-12 via X2) | 48% | 3.8 µM |  | 
8 | CC[C@H](C)[C@@H]1NC(=O)[C@H](CCCCN)NC(=O)[C@H](CC(C)C)NC(=O)[C@H](CO)NC(=O)[C@H](CC(N)=O)NC(=O)[C@H](Cc2c[nH]c3ccccc23)NC(=O)CCN(C(=O)c2ccccc2-c2c3ccc(=O)cc-3oc3cc(O)ccc23)C(=O)NCCCN(CC(N)=O)C(=O)[C@H](C(C)C)NC(=O)[C@H](CC(=O)O)NC(=O)[C@H](CC(C)C)NC(=O)[C@H](CC(N)=O)NC(=O)[C@H](CC(=O)O)NC1=O (WNSLKIDNLDV[NGly(3-aminopropyl)]-NH2; linker N-12 via X2) | 19% | 4 µM |  | 
9 | CC[C@H](C)[C@@H]1NC(=O)[C@H](CCCCN)NC(=O)[C@H](CC(C)C)NC(=O)[C@H](CO)NC(=O)[C@H](CC(N)=O)NC(=O)[C@H](Cc2c[nH]c3ccccc23)NC(=O)CCN(C(=O)c2ccccc2-c2c3ccc(=O)cc-3oc3cc(O)ccc23)C(=O)NCCN(CC(N)=O)C(=O)[C@H](C(C)C)NC(=O)[C@H](CC(=O)O)NC(=O)[C@H](CC(C)C)NC(=O)[C@H](CC(N)=O)NC(=O)[C@H](CC(=O)O)NC1=O (WNSLKIDNLDV[N(2-Aminoethyl)Gly]-NH2; linker N-12 via X2) | 54% | 6.3 µM |  | 
